From PubChem BioAssay (NCI)
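Dose response: 5 concentrations. Exposure: 48 h. Format: 96-well plates. Endpoint: linear interpolation; highest concentration if not reached. TGI is the concentration that stops growth completely.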

Columns and labels:
Experiment in all cases: NCI tumour cell line growth inhibition, 48 h
HOP-18 NSCLC = tested on: HOP-18 NSCLC
HL-60(TB) leukemia = tested on: HL-60(TB) leukemia
RXF-631 renal = tested on: RXF-631 renal
DMS 114 small cell lung = tested on: DMS 114 small cell lung
NCI-H460 lung = tested on: NCI-H460 lung
LXFL 529 NSCLC = tested on: LXFL 529 NSCLC
SNB-78 CNS = tested on: SNB-78 CNS
TK-10 renal = tested on: TK-10 renal
DMS 273 small cell lung = tested on: DMS 273 small cell lung
DLD-1 colon = tested on: DLD-1 colon
KM20L2 colon = tested on: KM20L2 colon
SN12K1 renal = tested on: SN12K1 renal
P388/ADR leukemia = tested on: P388/ADR leukemia
M19-MEL melanoma = tested on: M19-MEL melanoma
XF 498 CNS = tested on: XF 498 CNS

SMILES | TGI (HOP-18 NSCLC) | TGI (HL-60(TB) leukemia) | TGI (RXF-631 renal) | TGI (DMS 114 small cell lung) | TGI (NCI-H460 lung) | TGI (LXFL 529 NSCLC) | TGI (SNB-78 CNS) | TGI (TK-10 renal) | TGI (DMS 273 small cell lung) | TGI (DLD-1 colon) | TGI (KM20L2 colon) | TGI (SN12K1 renal) | TGI (P388/ADR leukemia) | TGI (M19-MEL melanoma) | TGI (XF 498 CNS)
NC(N)=NCCCC(NCc1c2ccccc2[n+]([O-])c2ccccc12)C(=O)O (centres undefined) | > 100 µM | 58.7 µM | > 100 µM | > 100 µM | > 100 µM | > 100 µM | > 100 µM | > 100 µM | > 100 µM | > 100 µM | > 100 µM |  |  |  | 
Oc1c2c(c3c4c1N=CC=4CCN=3)C1(C=C(Br)C(O)C(Br)=C1)CCN2 (centres undefined) | 23.5 µM | 2.08 µM |  | 0.718 µM | 8.47 µM |  | 10.4 µM |  | 3.45 µM | 3.95 µM | 3.26 µM | 10.7 µM | 4.81 µM | 1050 nM | 
Nc1ccn(CC(CO)CC(c2ccccc2)P(=O)(O)O)c(=O)n1 (centres undefined) | > 100 µM | > 100 µM |  | > 100 µM | > 100 µM | > 100 µM | > 100 µM | > 100 µM | > 100 µM | > 100 µM | > 100 µM |  |  | > 100000 nM | > 100 µM
